Reference: ChEMBL document CHEMBL1201862, “PubChem BioAssay data set” (2004)
Active and inactive are the calls of the source.

Key:
[1] = target: Photoreceptor-specific nuclear receptor (Homo sapiens, UniProt Q9Y5X4); format: functional, cell-based;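 note: CHO-S cells with Gal4-NCOR and VP16-NR2E3 two-hybrid luciferase reporter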
[2] = inhibitors of intracellular T. cruzi replication, confirmation, NIH3T3 host cells, beta-gal luminescence (AID 2044); format: functional, cell-based;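 note: intracellular parasites grown in NIH/3T3 mouse fibroblasts as host cells; luminescent beta-galactosidase reporter signal from transgenic T. cruzi replicating inside host cells; inhibitors lower the luminescence signal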
[3] = AlphaScreen signal interference compounds, dose response, artefact control for ARNT-TACC3 interaction inhibitor project, biochemical, luminescence, cherry-pick (AID 651705); format: functional;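 note: AlphaScreen bead proximity signal that flags compounds interfering with the detection technology; potency reflects signal decrease which marks the compound as an assay artifact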
[4] = cytotoxicity toward NIH3T3 fibroblasts, dose response, counter-screen, cell-based, ATP luminescence, mouse fibroblasts (AID 2010); format: functional;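 note: cells exposed to compound for about 90 hours before reading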
INS1 = assay: beta cell apoptosis inhibitors, cytokine rescue, dose response, luminescence, retest (AID 449756); format: functional, cell-based; conditions: Rattus norvegicus;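 note: cell death triggered by IL-1 beta plus TNF-alpha plus IFN-gamma mixture; protective hits raise ATP signal compared with cytokine alone wells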
HEK293 = assay: inhibitors of LMP1-driven NF-kB reporter, dose response, cell-based, HEK293, luciferase, cherry-pick (AID 588343); format: functional; conditions: Homo sapiens
Nonstructural protein 1 = Nonstructural protein 1 (Influenza A virus, UniProt Q194T2); format: functional, Influenza A virus (A/California/07/2009(H1N1))
Chain of Nonstructural protein 1 (Q194T2 whole entry): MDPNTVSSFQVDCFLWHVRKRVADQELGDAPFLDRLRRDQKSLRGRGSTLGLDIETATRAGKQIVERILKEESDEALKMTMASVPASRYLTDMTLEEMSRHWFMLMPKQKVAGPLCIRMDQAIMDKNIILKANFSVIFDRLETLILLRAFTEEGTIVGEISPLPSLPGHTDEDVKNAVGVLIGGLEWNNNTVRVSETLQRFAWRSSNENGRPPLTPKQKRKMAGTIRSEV

[5] = target: 5-hydroxytryptamine receptor 2A (Mus musculus, UniProt P35363); format: functional, cell-based;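 note: CHO-K1 cells with tagged receptor and beta-arrestin; agonist potency measured as compound-induced activation of the receptor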
Chain of 5-hydroxytryptamine receptor 2A (P35363 whole entry): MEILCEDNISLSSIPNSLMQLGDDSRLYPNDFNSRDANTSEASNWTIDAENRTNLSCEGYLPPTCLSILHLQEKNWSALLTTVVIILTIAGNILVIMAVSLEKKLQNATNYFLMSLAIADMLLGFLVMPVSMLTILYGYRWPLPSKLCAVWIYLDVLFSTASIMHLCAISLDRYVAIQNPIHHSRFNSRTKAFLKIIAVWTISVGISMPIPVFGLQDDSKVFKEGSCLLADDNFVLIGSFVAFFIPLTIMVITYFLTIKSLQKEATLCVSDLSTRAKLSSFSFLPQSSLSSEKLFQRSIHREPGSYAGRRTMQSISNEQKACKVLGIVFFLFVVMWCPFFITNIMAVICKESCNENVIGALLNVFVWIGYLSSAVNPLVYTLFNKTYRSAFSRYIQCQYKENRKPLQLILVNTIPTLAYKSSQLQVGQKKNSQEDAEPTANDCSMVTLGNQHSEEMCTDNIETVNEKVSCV

Mu-type opioid receptor = Mu-type opioid receptor (Homo sapiens, UniProt P35372); format: functional, cell-based;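 note: U2OS cells with beta-arrestin recruitment to OPRM1 by beta-gal complementation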
Chain of Mu-type opioid receptor (P35372 whole entry): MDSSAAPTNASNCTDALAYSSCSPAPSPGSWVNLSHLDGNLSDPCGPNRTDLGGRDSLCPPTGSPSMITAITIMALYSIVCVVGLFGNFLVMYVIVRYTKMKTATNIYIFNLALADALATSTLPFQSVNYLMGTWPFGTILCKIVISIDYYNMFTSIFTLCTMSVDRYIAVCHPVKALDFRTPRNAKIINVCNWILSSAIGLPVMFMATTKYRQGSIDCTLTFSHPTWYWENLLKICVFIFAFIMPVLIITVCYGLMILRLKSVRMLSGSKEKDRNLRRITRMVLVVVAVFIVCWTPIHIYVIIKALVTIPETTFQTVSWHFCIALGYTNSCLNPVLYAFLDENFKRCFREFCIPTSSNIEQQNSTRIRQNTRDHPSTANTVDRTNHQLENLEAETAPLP

[6] = target: Tyrosyl-DNA phosphodiesterase 2 (Homo sapiens, UniProt O95551); assay: human TDP2 enzyme inhibitors, dose response, biochemical, epi absorbance, IC50 (AID 743297)
Chain of Tyrosyl-DNA phosphodiesterase 2 (O95551 whole entry): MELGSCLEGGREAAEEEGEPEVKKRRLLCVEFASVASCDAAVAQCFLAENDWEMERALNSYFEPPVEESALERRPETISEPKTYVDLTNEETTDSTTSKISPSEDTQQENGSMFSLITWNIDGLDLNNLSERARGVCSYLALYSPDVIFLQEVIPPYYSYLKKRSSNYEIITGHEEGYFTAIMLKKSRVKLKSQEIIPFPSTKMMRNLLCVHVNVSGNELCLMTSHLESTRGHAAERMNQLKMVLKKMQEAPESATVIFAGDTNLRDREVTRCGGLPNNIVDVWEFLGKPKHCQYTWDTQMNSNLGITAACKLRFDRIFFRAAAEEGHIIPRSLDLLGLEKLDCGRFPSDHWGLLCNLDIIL

cells [7] = format: functional, cell-based
[8] = target: T1, Trace amine-associated receptor 1 (Homo sapiens, UniProt Q96RJ0); assay: Counterscreen for agonists of the human trace amine associated receptor 1 (hTAAR1): Fluorescence-based cell-based high throughput dose response assay to identify hTAAR1 agonist that also desensitize TAAR1 receptor response.; format: functional
T1 sequence (Q96RJ0 whole entry): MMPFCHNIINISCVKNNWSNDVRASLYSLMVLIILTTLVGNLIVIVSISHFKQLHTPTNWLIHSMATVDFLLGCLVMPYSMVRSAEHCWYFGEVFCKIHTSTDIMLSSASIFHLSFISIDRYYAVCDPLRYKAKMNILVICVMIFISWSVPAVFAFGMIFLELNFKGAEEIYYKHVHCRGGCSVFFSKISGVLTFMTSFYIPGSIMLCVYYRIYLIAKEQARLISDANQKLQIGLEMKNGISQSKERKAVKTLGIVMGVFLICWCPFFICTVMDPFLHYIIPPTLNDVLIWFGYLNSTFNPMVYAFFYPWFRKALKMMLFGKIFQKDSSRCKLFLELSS

[9] = target: T1, Trace amine-associated receptor 1; assay: Fluorescence-based cell-based high throughput dose response assay to identify agonists of the human trace amine associated receptor 1 (TAAR1).; format: functional
cells [10] = format: functional, cell-based; remark: listed apart in the source
[11] = target: T2, Rac GTPase-activating protein 1 (Homo sapiens, UniProt Q9H0H5); assay: MgcRacGAP GTPase-activating activity inhibitors, confirmation, biochemical, ADP Hunter fluorescence, primary and confirmatory (AID 624330); format: functional
T2 sequence (Q9H0H5 whole entry): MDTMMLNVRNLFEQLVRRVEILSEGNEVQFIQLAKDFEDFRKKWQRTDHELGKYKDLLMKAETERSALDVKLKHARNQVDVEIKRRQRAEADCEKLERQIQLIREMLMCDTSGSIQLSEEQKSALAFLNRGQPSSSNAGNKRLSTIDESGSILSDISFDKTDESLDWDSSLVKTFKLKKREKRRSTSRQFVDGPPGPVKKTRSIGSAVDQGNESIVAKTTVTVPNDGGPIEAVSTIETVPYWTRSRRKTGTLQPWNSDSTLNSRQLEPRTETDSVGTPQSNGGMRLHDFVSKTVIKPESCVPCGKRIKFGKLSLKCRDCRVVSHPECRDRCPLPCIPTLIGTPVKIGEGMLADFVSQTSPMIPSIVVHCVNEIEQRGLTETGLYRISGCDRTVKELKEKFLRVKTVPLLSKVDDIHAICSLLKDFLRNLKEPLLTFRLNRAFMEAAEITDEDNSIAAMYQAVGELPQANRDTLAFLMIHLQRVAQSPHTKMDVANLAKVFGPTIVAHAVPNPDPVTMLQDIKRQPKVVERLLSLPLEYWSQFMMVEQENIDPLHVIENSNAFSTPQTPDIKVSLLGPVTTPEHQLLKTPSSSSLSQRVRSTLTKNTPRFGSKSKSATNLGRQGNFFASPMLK

[12] = Counterscreen for activators of the function of SWI/SNF related, matrix associated, actin dependent regulator of chromatin, subfamily a, member 2 (SMARCA2, BRM): Luminescence-based cell-based high throughput dose response assay to identify non-selective compounds using the VP16 reporter assay.; format: functional
[13] = Fluorescence-based cell-based high throughput dose response assay for inhibitors of the interaction of nucleotide-binding oligomerization domain containing 2 (NOD2) and the receptor-interacting serine-threonine kinase 2 (RIPK2).; format: functional; conditions: Homo sapiens
[14] = target: Glucose-6-phosphate 1-dehydrogenase (Homo sapiens, UniProt P11413); assay: human G6PD enzyme inhibitors, dose response, selectivity assay for P. falciparum G6PD inhibitor project, biochemical, fluorescence (AID 504792); format: functional
Chain of Glucose-6-phosphate 1-dehydrogenase (P11413 whole entry): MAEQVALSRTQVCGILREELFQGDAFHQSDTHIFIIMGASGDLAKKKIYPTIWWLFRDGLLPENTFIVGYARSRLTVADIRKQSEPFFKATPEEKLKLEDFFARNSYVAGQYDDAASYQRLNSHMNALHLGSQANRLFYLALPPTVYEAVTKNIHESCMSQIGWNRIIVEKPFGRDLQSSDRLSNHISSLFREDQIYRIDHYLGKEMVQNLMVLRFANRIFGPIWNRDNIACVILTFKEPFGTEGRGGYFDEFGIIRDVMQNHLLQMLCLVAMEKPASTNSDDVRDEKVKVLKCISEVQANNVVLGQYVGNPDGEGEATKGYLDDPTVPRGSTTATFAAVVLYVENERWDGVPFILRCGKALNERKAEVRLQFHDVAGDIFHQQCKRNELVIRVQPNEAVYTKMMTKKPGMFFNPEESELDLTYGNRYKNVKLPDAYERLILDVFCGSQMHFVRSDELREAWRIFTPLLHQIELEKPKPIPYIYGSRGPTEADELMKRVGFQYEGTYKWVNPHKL

Hexokinase = target: T3, Hexokinase (Trypanosoma brucei, UniProt Q38C41); assay: Confirmation assay for inhibitors of Trypanosoma brucei hexokinase 1-Analogue-first series. [Related pubchem assays (depositor defined):AID1430, AID1632, AID2516, AID2560, AID2579, AID2600, AID449725, AID492951]; format: functional
T3 sequence (Q38C41 whole entry): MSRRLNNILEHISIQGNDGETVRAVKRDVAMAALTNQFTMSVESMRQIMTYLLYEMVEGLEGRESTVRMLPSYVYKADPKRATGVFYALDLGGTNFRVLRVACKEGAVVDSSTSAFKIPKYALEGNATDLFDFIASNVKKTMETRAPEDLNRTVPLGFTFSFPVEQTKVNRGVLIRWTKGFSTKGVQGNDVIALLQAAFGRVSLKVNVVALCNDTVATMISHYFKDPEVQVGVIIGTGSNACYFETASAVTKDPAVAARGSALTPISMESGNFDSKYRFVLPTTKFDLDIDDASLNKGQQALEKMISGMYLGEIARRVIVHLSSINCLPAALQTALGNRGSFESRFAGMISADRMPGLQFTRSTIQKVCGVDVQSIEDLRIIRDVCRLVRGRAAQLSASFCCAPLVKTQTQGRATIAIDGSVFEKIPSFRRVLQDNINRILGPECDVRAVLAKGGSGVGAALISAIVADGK

[15] = target: SWI/SNF-related matrix-associated actin-dependent regulator of chromatin subfamily A member 2 (Homo sapiens, UniProt P51531); assay: Luminescence-based cell-based high throughput dose response assay to identify activators of the function of SWI/SNF related, matrix associated, actin dependent regulator of chromatin, subfamily a, member 2 (SMARCA2, BRM).; format: functional
Chain of SWI/SNF-related matrix-associated actin-dependent regulator of chromatin subfamily A member 2 (P51531 whole entry): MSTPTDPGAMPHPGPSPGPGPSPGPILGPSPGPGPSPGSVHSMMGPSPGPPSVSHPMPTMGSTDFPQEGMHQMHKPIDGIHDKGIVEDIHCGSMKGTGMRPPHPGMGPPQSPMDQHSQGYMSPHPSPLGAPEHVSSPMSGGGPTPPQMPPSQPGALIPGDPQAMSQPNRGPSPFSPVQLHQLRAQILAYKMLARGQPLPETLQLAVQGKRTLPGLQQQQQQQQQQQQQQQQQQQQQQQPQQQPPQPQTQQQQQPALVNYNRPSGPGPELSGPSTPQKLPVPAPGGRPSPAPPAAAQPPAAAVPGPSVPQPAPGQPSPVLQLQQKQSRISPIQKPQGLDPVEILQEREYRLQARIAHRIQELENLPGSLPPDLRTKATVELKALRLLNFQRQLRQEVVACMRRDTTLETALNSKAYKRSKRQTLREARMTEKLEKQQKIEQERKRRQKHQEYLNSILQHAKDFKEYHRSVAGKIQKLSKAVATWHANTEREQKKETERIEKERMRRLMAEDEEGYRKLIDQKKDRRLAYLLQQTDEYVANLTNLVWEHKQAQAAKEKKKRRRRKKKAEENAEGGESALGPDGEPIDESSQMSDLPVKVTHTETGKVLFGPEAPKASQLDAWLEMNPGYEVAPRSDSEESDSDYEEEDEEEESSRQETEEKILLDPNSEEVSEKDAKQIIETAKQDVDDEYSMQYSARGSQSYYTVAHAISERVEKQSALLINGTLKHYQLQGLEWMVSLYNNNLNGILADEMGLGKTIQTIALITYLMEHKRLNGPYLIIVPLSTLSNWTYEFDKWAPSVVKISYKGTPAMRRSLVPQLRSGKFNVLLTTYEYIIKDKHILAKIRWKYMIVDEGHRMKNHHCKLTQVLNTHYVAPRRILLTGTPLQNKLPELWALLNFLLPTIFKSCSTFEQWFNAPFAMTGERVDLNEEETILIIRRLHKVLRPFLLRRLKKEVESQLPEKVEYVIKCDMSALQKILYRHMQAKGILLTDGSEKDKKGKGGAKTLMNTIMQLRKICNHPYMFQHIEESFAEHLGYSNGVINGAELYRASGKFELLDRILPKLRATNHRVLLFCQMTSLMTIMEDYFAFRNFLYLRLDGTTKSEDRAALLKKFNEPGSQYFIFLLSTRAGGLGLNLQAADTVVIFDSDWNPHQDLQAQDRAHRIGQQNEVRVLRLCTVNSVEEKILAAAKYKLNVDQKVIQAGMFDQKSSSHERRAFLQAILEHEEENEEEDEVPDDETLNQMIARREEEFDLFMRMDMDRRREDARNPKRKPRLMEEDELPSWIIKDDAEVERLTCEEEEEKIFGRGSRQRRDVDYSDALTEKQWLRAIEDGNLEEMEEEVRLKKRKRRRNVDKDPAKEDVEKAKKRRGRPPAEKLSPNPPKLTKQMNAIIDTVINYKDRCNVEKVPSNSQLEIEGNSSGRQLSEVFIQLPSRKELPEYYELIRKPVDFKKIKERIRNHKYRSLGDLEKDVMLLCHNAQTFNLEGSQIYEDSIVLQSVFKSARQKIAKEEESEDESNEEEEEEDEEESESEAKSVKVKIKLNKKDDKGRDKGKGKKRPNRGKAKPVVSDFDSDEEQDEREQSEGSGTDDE

Beta Lactamase = Beta Lactamase (Pseudomonas aeruginosa, UniProt Q932Y6); assay: beta-lactamase reporter inhibitor potency, dose response, artefact control for NOD2-RIPK2 interaction inhibitor project, BLA reporter cells, FRET fluorescence (AID 651552); format: functional, cell-based
Chain of Beta Lactamase (Q932Y6 whole entry): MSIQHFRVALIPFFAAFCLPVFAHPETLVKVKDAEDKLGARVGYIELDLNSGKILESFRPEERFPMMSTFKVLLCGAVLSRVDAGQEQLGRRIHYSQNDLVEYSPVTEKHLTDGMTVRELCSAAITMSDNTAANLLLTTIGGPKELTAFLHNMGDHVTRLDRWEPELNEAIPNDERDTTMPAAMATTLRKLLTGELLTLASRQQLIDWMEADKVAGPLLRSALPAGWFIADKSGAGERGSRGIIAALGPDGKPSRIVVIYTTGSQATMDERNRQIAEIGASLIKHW

[16] = cytotoxicity in OVCAR8 ovarian cancer cells, dose response, PAX8 project, cell-based, plate reader, dry powder samples (AID 743197); format: functional; conditions: OVCAR-8
Paired box protein Pax-8 = Paired box protein Pax-8 (Homo sapiens, UniProt Q06710); assay: inhibitors of PAX8-driven TPO luciferase reporter, dose response, RMG-I cells, cherry-pick (AID 687027); format: functional, cell-based;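 note: luciferase reporter driven by Pax8 target thyroperoxidase promoter measured by SteadyGlo luminescence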
Chain of Paired box protein Pax-8 (Q06710 whole entry, the tested form may be a part): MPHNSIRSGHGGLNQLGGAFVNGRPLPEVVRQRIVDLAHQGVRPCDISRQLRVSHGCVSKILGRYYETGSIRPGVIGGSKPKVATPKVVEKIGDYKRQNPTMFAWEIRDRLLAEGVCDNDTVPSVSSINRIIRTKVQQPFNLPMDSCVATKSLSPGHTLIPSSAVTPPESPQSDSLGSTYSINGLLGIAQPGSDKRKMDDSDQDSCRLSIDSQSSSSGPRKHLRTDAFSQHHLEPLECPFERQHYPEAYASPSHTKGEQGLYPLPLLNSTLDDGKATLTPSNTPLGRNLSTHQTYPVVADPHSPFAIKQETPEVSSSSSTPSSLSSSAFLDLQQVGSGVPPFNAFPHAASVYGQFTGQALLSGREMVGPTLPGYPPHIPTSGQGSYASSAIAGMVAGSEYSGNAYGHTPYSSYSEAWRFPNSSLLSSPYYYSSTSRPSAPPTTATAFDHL

[17] = inhibitors of clade B AD8 Env fusion, dose response, cell-based, cherry-pick (AID 652062); format: functional;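 note: luciferase signal from cell-cell fusion driven by HIV-1 clade B AD8 Env; potency is for inhibitors of fusion seen as a drop in luminescence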
[18] = CEM21 lymphoblast cell cytotoxicity, dose response, cytotoxicity control for viral fusion inhibitor project, CellTiter-Glo luminescence, cherry-picked (AID 652042); format: functional, cell-based;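 note: potency for signal decrease meaning cytotoxicity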
[19] = inhibitors of HIV Env-driven cell fusion, dose response, cherry-pick (AID 652057); format: functional, cell-based
Streptococcus = assay: Group A Streptococcus viability loss, dose response, counter-screen for streptokinase expression inhibitor project, luminescence, BacTiterGlo (AID 1915); format: functional, organism-based;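 note: potency for reduction of bacterial viability or growth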
[20] = A cytotoxicity screen of small molecule inhibitors of the PhoP region in Salmonella typhi identified in the primary screen. [Related pubchem assays: 1850, 1864, 1985 ]; format: functional
[21] = target: T4, Sentrin-specific protease 8 (Homo sapiens, UniProt Q96LD8); format: functional
T4 sequence (Q96LD8 whole entry): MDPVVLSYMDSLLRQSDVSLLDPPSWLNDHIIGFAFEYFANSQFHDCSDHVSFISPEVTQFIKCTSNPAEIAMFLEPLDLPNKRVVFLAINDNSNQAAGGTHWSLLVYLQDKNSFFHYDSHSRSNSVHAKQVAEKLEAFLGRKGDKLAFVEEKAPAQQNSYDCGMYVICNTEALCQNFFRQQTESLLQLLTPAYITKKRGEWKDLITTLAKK

[22] = test system: Streptococcus sp. 'group A'; assay: growth inhibition of control SK(-) GAS strain, dose response, counter-screen for streptokinase expression inhibitor project, luminescence, kanamycin, BacTiterGlo, confirmation (AID 1900); format: functional, organism-based
[23] = target: T4, Sentrin-specific protease 8; format: functional; remark: listed apart in the source
Streptokinase A = target: T5, Streptokinase A (Streptococcus pyogenes serotype M1, UniProt P10520); assay: S. pyogenes streptokinase expression inhibitors, potency, dose response, plasminogen activation absorbance, OD405 (AID 1914); format: functional, Streptococcus pyogenes M1 GAS;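 note: secreted streptokinase activity via plasminogen activation per viability signal from cell pellet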
T5 sequence (P10520 whole entry): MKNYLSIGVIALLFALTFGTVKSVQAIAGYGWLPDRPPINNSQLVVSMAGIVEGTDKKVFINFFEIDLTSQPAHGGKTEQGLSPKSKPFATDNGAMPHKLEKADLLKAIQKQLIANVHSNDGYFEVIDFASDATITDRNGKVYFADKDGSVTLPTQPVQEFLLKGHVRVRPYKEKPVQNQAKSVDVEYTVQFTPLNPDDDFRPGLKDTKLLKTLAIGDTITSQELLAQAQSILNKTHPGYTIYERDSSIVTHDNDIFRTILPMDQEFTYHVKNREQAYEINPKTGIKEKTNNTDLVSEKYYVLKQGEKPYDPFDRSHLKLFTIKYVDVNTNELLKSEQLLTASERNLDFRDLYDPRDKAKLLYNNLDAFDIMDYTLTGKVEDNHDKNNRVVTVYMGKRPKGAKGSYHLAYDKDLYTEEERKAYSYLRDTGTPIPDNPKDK

[24] = HeLa cell cytotoxicity, dose response, cytotoxicity control for MgcRacGAP inhibitor project (AID 624300); format: functional
[25] = target: T6, Heat shock factor protein 1 (Mus musculus, UniProt P38532); assay: HSF1 potentiators in luciferase reporter cells, confirmation, cell-based, NIH3T3, luminescence, dose retest (AID 435004); format: functional;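 note: stress induced by proteasome inhibitor MG132 added 30 min after compound; luciferase reporter driven by HSF1 response element in NIH3T3 cells; actives raise luminescence as potentiators of the MG132 stress response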
T6 sequence (P38532 whole entry): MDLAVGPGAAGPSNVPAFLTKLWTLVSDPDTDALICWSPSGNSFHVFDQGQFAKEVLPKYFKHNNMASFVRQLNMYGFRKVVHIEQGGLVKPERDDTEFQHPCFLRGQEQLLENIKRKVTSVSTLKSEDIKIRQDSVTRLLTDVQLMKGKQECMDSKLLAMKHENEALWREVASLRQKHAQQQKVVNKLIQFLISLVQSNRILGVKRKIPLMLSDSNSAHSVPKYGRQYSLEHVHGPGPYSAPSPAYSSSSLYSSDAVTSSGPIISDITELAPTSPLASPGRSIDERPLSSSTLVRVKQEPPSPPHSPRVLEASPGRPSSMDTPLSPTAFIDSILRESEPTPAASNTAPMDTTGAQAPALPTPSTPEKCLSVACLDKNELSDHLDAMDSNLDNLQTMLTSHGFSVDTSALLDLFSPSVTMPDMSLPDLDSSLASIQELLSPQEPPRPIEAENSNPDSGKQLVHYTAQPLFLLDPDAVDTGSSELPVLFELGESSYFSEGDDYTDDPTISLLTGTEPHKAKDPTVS

Chain of Photoreceptor-specific nuclear receptor (Q9Y5X4 whole entry, the tested form may be a part): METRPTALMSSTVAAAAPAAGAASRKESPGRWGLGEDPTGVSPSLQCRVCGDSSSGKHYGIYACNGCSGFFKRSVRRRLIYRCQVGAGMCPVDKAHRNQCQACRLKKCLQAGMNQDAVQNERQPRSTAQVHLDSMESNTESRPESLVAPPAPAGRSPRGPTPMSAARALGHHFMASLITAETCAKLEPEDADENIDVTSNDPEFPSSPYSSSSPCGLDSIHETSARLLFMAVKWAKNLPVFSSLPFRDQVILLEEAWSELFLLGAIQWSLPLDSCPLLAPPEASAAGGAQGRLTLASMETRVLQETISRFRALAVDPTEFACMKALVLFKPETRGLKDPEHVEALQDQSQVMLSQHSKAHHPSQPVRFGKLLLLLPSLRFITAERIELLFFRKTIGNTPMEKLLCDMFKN

## CCC(C)Nc1nc(-c2ccccn2)nc2ccccc12 (stereo not given)
[1]
  IC50: 4.14 µM (active)
[2]
  EC50: 1.33 µM (active)
[3]
  AC50: 117 µM (active)
[4]
  EC50: > 30 µM (not active)
INS1
  AC50: 2.89 µM (active)
HEK293
  AC50: 4.94 µM (active)
Nonstructural protein 1
  IC50: 25.5 µM (active)

## c1ccc(CN2CCN(c3ncccn3)CC2)cc1
[5]
  EC50: 0.235 µM (active)
Mu-type opioid receptor
  EC50: 92.5 µM (inactive)

## S=C(Nc1ccc2nsnc2c1)N1CCCC1
[6]
  IC50: > 128 µM (inactive)

## CCCOc1ccc(OCCOCCN2CCc3ccccc3C2)cc1
Cells [7]
  EC50: > 29.9 µM (inactive)
[2]
  EC50: 0.205 µM (active)
[4]
  EC50: > 30 µM (not active)
[8]
  IC50: > 3.32 µM (active)
[9]
  EC50: 2.08 µM (active)
Cells [10]
  IC50: > 29.9 µM (inactive)

## O=C(Cn1sc2ccccc2c1=O)Nc1ccc(F)cc1
[11]
  IC50: 56.2 µM (active)
[12]
  EC50: > 91.1 µM (inactive)
[13]
  IC50: 9.51 µM (active)
[14]
  IC50: 14.9 µM (active)
Hexokinase
  IC50: 6.23 µM (active)
[15]
  EC50: > 91.1 µM (inactive)
Beta Lactamase
  IC50: 19.3 µM (inactive)

## COc1cccc(S(=O)(=O)N(C)C[C@@H]2OCc3ccccc3-c3c(n(C)c4ccccc34)C(=O)N([C@@H](C)CO)C[C@@H]2C)c1
[16]
  AC50: > 70 µM (inactive)
Paired box protein Pax-8
  AC50: 5.8 µM (active)
[17]
  AC50: 19.2 µM (active)
[18]
  AC50: 34.8 µM (active)
[19]
  AC50: 16.5 µM (active)

## COc1cccc(S(=O)(=O)N2CC3(CN(C(=O)Nc4cccc(F)c4)[C@@H](CO)c4[nH]c5cc(OC)ccc5c43)C2)c1
[17]
  AC50: 27.1 µM (active)
[18]
  AC50: 26.1 µM (active)
[19]
  AC50: 0.986 µM (active)

## O=[N+]([O-])c1ccc(/C=[N+](\[O-])CCO)o1
Streptococcus
  EC50: 9.91 µM (active)
[20]
  EC50: > 50 µM (active)
[21]
  IC50: 43.4 µM (active)
[22]
  EC50: 3.97 µM (active)
[23]
  IC50: 16.7 µM (active)
Streptokinase A
  EC50: > 150 µM (not active)

## O=S(=O)(c1ccc(Cl)c(NC(=S)N/N=C/c2ccc(O)cc2)c1)N1CCOCC1
[11]
  IC50: 47.6 µM (active)
[24]
  CC50: 45.7 µM (active)
[25]
  EC50: > 260 µM (inactive)
